Data reported in patent EP0309541B1, “SULFONYLCARBOXAMIDES” (AMERICAN HOME PRODUCTS CORPORATION, priority 1987, dated 1988).
pIC50: −log10 of the molar value.

Tests used:
[1] = tested on: rat carrageenan paw edema; assay: Rat carrageenan paw edema assay; assay type: in vivo; conditions: for ED50: oral, standard drugs, rat paw edema, read-out: Oral ED50 (95% C.L.); for % Inhibition at 50 mg/kg (peroral): 1 hour prior to carrageenan, edema at 3 hours
Procedure: The compounds of the invention are further tested in the rat carrageenan paw edema assay to determine their ability to inhibit the acute inflammatory response.
(§1) This assay is carried out as follows:
140-180 gm male Sprague-Dawley rats, in groups of 6 animals are injected subcutaneously in the right paw with 0.1 ml of 1% carrageenan at zero time. Mercury plethysmographic readings (ml) of the paw are made at zero time and 3 hours later. Test compounds are suspended or dissolved in 0.5% methylcellulose and given perorally 1 hour prior to carrageenan administration.
The increase in paw volume (edema in ml.) produced by the carrageenan is measured. […] Unpaired Student's t-test is used to determine statistical significance.

[2] = tested on: LTD₄ induced bronchoconstriction; assay: Inhibition of leukotriene-induced bronchospasm in guinea pigs in vivo; conditions: 10 minutes before induction of bronchospasm, inhibition of % max AUC
Procedure: The assay of this Example measures the in vivo ability of the compounds of the invention to inhibit the bronchospasm induced in guinea pigs by the exogenously administered leukotrienes C₄ and/or D₄.
as §1
Male Hartley strain guinea pigs (350-600g) are anesthetized with pentobarbital sodium (50 mg/kg, i.p.). The jugular vein is cannulated for injection of drugs and the carotid artery for monitoring blood pressure. The trachea is cannulated for artificial ventilation by a miniature Starling pump and for indirect measurement of respiratory volume changes. The animals are then pretreated with succinylcholine (2 mg/kg i.v.) and indomethacin (10 mg/kg i.v. in trizma 8.3 buffer, 9 minutes prior to leukotriene challenge). Submaximal bronchoconstrictor responses are established in control animals by varying the dose-levels of leukotriene. Intravenous dose-levels for LTC₄ range from 0.4 to 0.6 µg/kg and for LTD₄ the range is from 0.3 to 0.5 µg/kg.
Test drugs (dissolved in a solvent such as propylene glycol, polyethylene glycol 400 or saline) are administered either intraduodenally, by aerosol or intragastrically at 2 or 10 minutes before induction of bronchospasm by administration of either LTC₄ or LTD₄ at the predetermined dose-level. Aerosol of soluble drugs or leukotrienes are produced in-line for 10 seconds only by actuation of an ultrasonic nebulizer (Monaghan). Aerosolized drug dosage is expressed in terms of solution concentration and by a fixed aerosol exposure time (approximately 10 seconds). Control animal receive solvent (2 ml/kg i.d. or appropriate aerosol) in place of drug.
Respiratory volume changes are determined by a calibrated piston whose travel is recorded, via a linear transducer, on a Beckman Dynograph recorder. Maximal bronchoconstrictor volume is determined by clamping off the trachea at the end of the experiment. Overflow volumes at 1, 3 and 5 minutes are obtained from the recorded charts.
Student's t-test for unpaired data is used to determine statistical significance (p < 0.05).

[3] = tested on: synthesis of 5-HETE by rat glycogen elicited polymorphonuclear leukocytes; assay: Inhibition of 5-HETE synthesis by rat glycogen elicited polymorphonuclear leukocytes; assay type: cell-based; conditions: Leukocyte, rat peritoneal PMN, A23187 10 µM, [14C] arachidonic acid, read-out: IC₅₀
Procedure: The assay of this Example measures the ability of the compounds of the invention to inhibit the synthesis of 5-HETE by rat glycogen elicited polymorphonuclear leukocytes.
The assay is carried out as follows:
(§2) Peritoneal PMN are obtained from female Wistar rats (150-250 g) that received an i.p. injection of 6% glycogen (10 ml). After 24 hours, rats are killed by Co₂ asphyxiation and peritoneal cells are harvested by peritoneal lavage using Ca⁺⁺ and Mg⁺⁺ free Hanks' balanced salt solution (HBSS). The peritoneal exudate is centrifuged at 400 g for 10 minutes. After centrifugation, the lavaged fluid is removed and the cell pellet is resuspended in HBSS containing Ca⁺⁺ and Mg⁺⁺ and 10 mM L-cysteine at a concentration of 2 x 10⁷ cells/ml. To 1 ml portions of cell suspension, test drugs or vehicle are added and incubated at 37°C for 10 minutes. Following this preincubation, the calcium ionophore (10 µM), A23187, is added together with 0.5 µCi [₁₄C] arachidonic acid and further incubated for 10 minutes. The reaction is stopped by the addition of ice cold water (3 ml) and acidifying to pH 3.5. Lipoxygenase products are then extracted twice into diethyl ether. […] After chromatography, the areas associated with 5-HETE standard are identified by autoradiography, cut out and quantitated by liquid scintillation.

[4] = tested on: synthesis of the arachidonic acid cyclooxygenase oxidation product PGE₂; assay: Inhibition of PGE₂ synthesis (cyclooxygenase product) by rat polymorphonuclear leukocytes; assay type: cell-based; conditions: Leukocyte, rat peritoneal PMN, procedure of Example 4, read-out: IC₅₀
Procedure: as §2, with “scintillation. […]” for “scintillation.”
In this assay, the procedure of Example 4 is carried out as described. […] After chromatography, the areas associated with the PGE₂ standard are identified by autoradiography, cut out and quantitated by liquid scintillation techniques.
The results are calculated as in Example 4.

[5] = 25 mg/kg intraduodenally administered
[6] = 25 mg/kg intragastrically administered

CC(=O)Oc1ccccc1C(=O)O [Aspirin]
ED50 [1]: 145 mg/kg

Cc1ccc(S(=O)(=O)NC(=O)CCc2cccc(OCc3ccc4ccccc4n3)c2)cc1 [Example 1, N-[(4-Methylphenyl)sulfonyl]-3-(2-quinolylmethoxy)benzenepropanamide]
% Inhibition [2, 5]: 97%
% Inhibition [2, 6]: 66%
% Inhibition at 50 mg/kg (peroral) [1]: 40%

Cc1ccc(S(=O)(=O)NC(=O)c2cccc(OCc3ccc4ccccc4n3)c2)cc1 [Example 3, N-[(4-Methylphenyl)sulfonyl]-3-(2-quinolinylmethoxy)benzamide]
pIC50 [3]: 5.22
pIC50 [4]: 4.89
% Inhibition [2, 5]: 97%
% Inhibition [2, 6]: 91%
% Inhibition at 50 mg/kg (peroral) [1]: 50%

COc1ccc2c(c1)c(CC(=O)O)c(C)n2C(=O)c1ccc(Cl)cc1 [Indomethacin]
ED50 [1]: 3.7 mg/kg

CCCCC1C(=O)N(c2ccccc2)N(c2ccccc2)C1=O [Phenylbutazone]
ED50 [1]: 26.2 mg/kg
